Source: article PMC10976173, “Synthesis of 5-Benzylamino and 5-Alkylamino-Substituted Pyrimido[4,5-c]quinoline Derivatives as CSNK2A Inhibitors with Antiviral Activity” (Pharmaceuticals, 2024)
Converted amounts (≈) assume the structure as drawn.

Experiments:
[1] = Kinetic solubility in PBS pH 7.4; assay type: physicochemical; conditions: phosphate-buffered saline, pH 7.4, aqueous buffer, kinetic from dmso stock, PBS pH 7.4, 24 h
Description: Kinetic solubility assay was conducted using 10 mM DMSO stocks of compounds in phosphate-buffered saline solution (PBS) at pH 7.4 by Analiza, Inc., Cleveland, OH, USA. […] The calculated values were corrected for the background nitrogen in the media and DMSO.

CSNK2A (CSNK2A2-NLuc) = biological target: T1, CSNK2A (CSNK2A2-NLuc) (Homo sapiens, UniProt P19784); experiment: In-cell CSNK2A target engagement by NanoBRET assay; assay type: cell-based; conditions: for IC50: In-cell target engagement by NanoBRET assay, HEK293 cells; for Designation: active / inactive analogs with 10-fold differences in IC50; for fold increase in CSNK2A potency: compared to 4q; for fold decrease in CSNK2A potency: compared to the parent compounds (4s and 4w)
T1 construct: expressed in transfected cells; host or cells: HEK293
T1 sequence (P19784 whole entry): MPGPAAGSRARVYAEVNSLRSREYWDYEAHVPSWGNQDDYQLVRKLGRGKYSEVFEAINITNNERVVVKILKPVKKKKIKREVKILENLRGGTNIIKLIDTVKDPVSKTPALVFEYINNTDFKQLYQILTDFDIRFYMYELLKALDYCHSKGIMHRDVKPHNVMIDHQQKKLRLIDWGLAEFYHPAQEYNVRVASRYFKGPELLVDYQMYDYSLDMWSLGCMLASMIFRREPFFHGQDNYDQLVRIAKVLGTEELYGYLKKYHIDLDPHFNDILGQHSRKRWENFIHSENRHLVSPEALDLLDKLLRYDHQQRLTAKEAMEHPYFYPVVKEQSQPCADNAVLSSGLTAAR
Description: A transfection complex of DNA at 10 µg/mL was created, consisting of 9 µg/mL of carrier DNA (Promega, Madison, WI, USA) and 1 µg/mL of CSNK2A2-NLuc fusion DNA in Opti-MEM without serum (Gibco). FuGENE HD (Promega) was added at 30 µL/mL to form a lipid/DNA complex. The solution was then mixed and incubated at room temperature for 20 min. […] The following day, the media was removed via aspiration and replaced with 85 μL of Opti-MEM without phenol red. A total of 5 μL per well of 20×-NanoBRET Tracer K10 (Promega) at 5 μM in Tracer Dilution Buffer (Promega N291B) was added to all wells, except the “no tracer” control wells. Test compounds (10 mM in DMSO) were diluted 100× in Opti-MEM media to prepare stock solutions and evaluated at eleven concentrations. A total of 10 μL per well of the 10-fold test compound stock solutions (final assay concentration of 0.1% DMSO) was added. […] 96-well plates containing cells with NanoBRET Tracer K10 and test compounds (100 µL total volume per well) were equilibrated (37 °C/5% CO2) for 2 h. The plates were cooled to room temperature for 15 min. […] A total of 50 μL of the 3× substrate/extracellular NL inhibitor were added to each well. The plates were read within 30 min on a GloMax Discover luminometer (Promega) equipped with 450 nm BP filter (donor) and 600 nm LP filter (acceptor) using 0.3 s integration time. Raw milliBRET (mBRET) values were obtained by dividing the acceptor emission values (600 nm) by the donor emission values (450 nm) and multiplying by 1000. […] The data were first normalized and then fit using Sigmoidal, 4PL binding curve in GraphPad Prism version 9.5.1 to determine IC50 values (Figure S1).

[2] = test system: Mouse Hepatitis Virus (MHV); experiment: microbe, parasite or virus in culture; assay type: cell-based; conditions: Murine coronavirus; Inhibition of MHV-NLuc in DBT cells; read-out: MHV IC50

SMILES	solubility at 24 h [1] [µM]	melting point [°C]	IC50 (CSNK2A (CSNK2A2-NLuc)) [nM]	Designation (CSNK2A (CSNK2A2-NLuc))	fold less active on CSNK2A (CSNK2A (CSNK2A2-NLuc); compared to unmethylated parent amine 4t) [fold]	fold increase in CSNK2A potency (CSNK2A (CSNK2A2-NLuc)) [fold]	fold decrease in CSNK2A potency (CSNK2A (CSNK2A2-NLuc)) [fold]	IC50 [2] [nM]
O=C(O)c1ccc2c(c1)nc(NCC1CCC(F)(F)CC1)c1ncncc12 [Compound 4aa, 5-(((4,4-difluorocyclohexyl)methyl)amino)pyrimido[4,5-c]quinoline-8-carboxylic acid]	180 (≈ 67 µg/mL)	288 to 291	190					10000
CN1CCC(CNc2nc3cc(C(=O)O)ccc3c3cncnc23)CC1 [Compound 4ab, 5-(((1-methylpiperidin-4-yl)methyl)amino)pyrimido[4,5-c]quinoline-8-carboxylic acid]	220 (≈ 77.3 µg/mL)	205 to 208	48700					
CN(CC1CCCCC1)c1nc2cc(C(=O)O)ccc2c2cncnc12 [Compound 4ad, 5-((cyclohexylmethyl)(methyl)amino)pyrimido[4,5-c]quinoline-8-carboxylic acid]	200 (≈ 70.1 µg/mL)	229 to 231	2400	Inactive	17			
CC(Nc1nc2cc(C(=O)O)ccc2c2cncnc12)c1ccccc1 (stereo not drawn) [Compound 4ae, 5-((1-phenylethyl)amino)pyrimido[4,5-c]quinoline-8-carboxylic acid]	180 (≈ 62 µg/mL)	228 to 232	1900	Inactive				
O=C(O)c1ccc2c(c1)nc(NC1CCc3ccccc31)c1ncncc12 (stereo not drawn) [Compound 4af, 5-((2,3-dihydro-1H-inden-1-yl)amino)pyrimido[4,5-c]quinoline-8-carboxylic acid]	160 (≈ 57 µg/mL)	270 to 273	230	Active				22000
O=C(O)c1ccc2c(c1)nc(N[C@@H]1CCc3ccccc31)c1ncncc12 [Compound 4ah, (R)-5-((2,3-dihydro-1H-inden-1-yl)amino)pyrimido[4,5-c]quinoline-8-carboxylic acid]		260 to 262	> 10000					
O=C(O)c1ccc2c(c1)nc(N1CCc3ccccc3C1)c1ncncc12 [Compound 4ai, 5-(3,4-dihydroisoquinolin-2(1H)-yl)pyrimido[4,5-c]quinoline-8-carboxylic acid]	160 (≈ 57 µg/mL)	204 to 208	1200	Inactive				
O=C(O)c1ccc2c(c1)nc(NCc1ccc(Cl)cc1)c1ncncc12 [Compound 4c, 5-((4-chlorobenzyl)amino)pyrimido[4,5-c]quinoline-8-carboxylic acid]	160 (≈ 58.4 µg/mL)	203 to 205	130					13000
COc1ccccc1CNc1nc2cc(C(=O)O)ccc2c2cncnc12 [Compound 4d, 5-((2-methoxybenzyl)amino)pyrimido[4,5-c]quinoline-8-carboxylic acid]	140 (≈ 50.5 µg/mL)	230 to 233	1000					
COc1cccc(CNc2nc3cc(C(=O)O)ccc3c3cncnc23)c1 [Compound 4e, 5-((3-methoxybenzyl)amino)pyrimido[4,5-c]quinoline-8-carboxylic acid]	170 (≈ 61.3 µg/mL)	210 to 214	600					
O=C(O)c1ccc2c(c1)nc(NCc1ccc(F)cc1)c1ncncc12 [Compound 4g, 5-((4-fluorobenzyl)amino)pyrimido[4,5-c]quinoline-8-carboxylic acid]	180 (≈ 62.7 µg/mL)	235 to 238	150					10000
O=C(O)c1ccc2c(c1)nc(NCc1ccc(C(F)(F)F)cc1)c1ncncc12 [Compound 4j, 5-((4-(trifluoromethyl)benzyl)amino)pyrimido[4,5-c]quinoline-8-carboxylic acid]	160 (≈ 63.7 µg/mL)	245 to 248	640					
N#Cc1ccc(CNc2nc3cc(C(=O)O)ccc3c3cncnc23)cc1 [Compound 4k, 5-((4-cyanobenzyl)amino)pyrimido[4,5-c]quinoline-8-carboxylic acid]	160 (≈ 56.9 µg/mL)	270 to 275	530					
O=C(O)c1ccc2c(c1)nc(NCc1ccc(-c3ccc(Cl)cc3)cc1)c1ncncc12 [Compound 4l, 5-(((4′-chloro-[1,1′-biphenyl]-4-yl)methyl)amino)pyrimido[4,5-c]quinoline-8-carboxylic acid]	< 1	246 to 248	1900					
O=C(O)c1ccc2c(c1)nc(NCc1ccccn1)c1ncncc12 [Compound 4n, 5-((pyridin-2-ylmethyl)amino)pyrimido[4,5-c]quinoline-8-carboxylic acid]	140 (≈ 46.4 µg/mL)	250 to 254	8000					
O=C(O)c1ccc2c(c1)nc(NCc1cccnc1)c1ncncc12 [Compound 4o, 5-((pyridin-3-ylmethyl)amino)pyrimido[4,5-c]quinoline-8-carboxylic acid]	200 (≈ 66.3 µg/mL)	270 to 274	6000					
O=C(O)c1ccc2c(c1)nc(NCc1ccncc1)c1ncncc12 [Compound 4p, 5-((pyridin-4-ylmethyl)amino)pyrimido[4,5-c]quinoline-8-carboxylic acid]	200 (≈ 66.3 µg/mL)	274 to 276	14000					
CC(C)CNc1nc2cc(C(=O)O)ccc2c2cncnc12 [Compound 4q, 5-(isobutylamino)pyrimido[4,5-c]quinoline-8-carboxylic acid]	170 (≈ 50.4 µg/mL)	270 to 273	1200					
CC(C)(C)CNc1nc2cc(C(=O)O)ccc2c2cncnc12 [Compound 4v, 5-(neopentylamino)pyrimido[4,5-c]quinoline-8-carboxylic acid]	190 (≈ 59 µg/mL)	282 to 285	870					
O=C(O)c1ccc2c(c1)nc(NCC1CCOC1)c1ncncc12 (stereo not drawn) [Compound 4y, 5-(((tetrahydrofuran-3-yl)methyl)amino)pyrimido[4,5-c]quinoline-8-carboxylic acid]	140 (≈ 45.4 µg/mL)	160 to 164	3100				10	
O=C(O)c1ccc2c(c1)nc(NCC13CCC(CC1)O3)c1ncncc12 [Compound 4z, 5-(((7-oxabicyclo[2.2.1]heptan-1-yl)methyl)amino)pyrimido[4,5-c]quinoline-8-carboxylic acid]	220 (≈ 77.1 µg/mL)	280 to 284	1400				10	

Continued, in another order:

solubility at 24 h [1] [µM]	melting point [°C]	IC50 (CSNK2A (CSNK2A2-NLuc)) [nM]	Designation (CSNK2A (CSNK2A2-NLuc))	fold less active on CSNK2A (CSNK2A (CSNK2A2-NLuc); compared to unmethylated parent amine 4t) [fold]	fold increase in CSNK2A potency (CSNK2A (CSNK2A2-NLuc)) [fold]	fold decrease in CSNK2A potency (CSNK2A (CSNK2A2-NLuc)) [fold]	SMILES	IC50 [2] [nM]
140 (≈ 51.1 µg/mL)	193 to 198	290					O=C(O)c1ccc2c(c1)nc(NCc1ccccc1Cl)c1ncncc12 [Compound 4a, 5-((2-chlorobenzyl)amino)pyrimido[4,5-c]quinoline-8-carboxylic acid]	
180 (≈ 62 µg/mL)	200 to 204	250	Active				CN(Cc1ccccc1)c1nc2cc(C(=O)O)ccc2c2cncnc12 [Compound 4ac, 5-(benzyl(methyl)amino)pyrimido[4,5-c]quinoline-8-carboxylic acid]	
	252 to 255	300					O=C(O)c1ccc2c(c1)nc(N[C@H]1CCc3ccccc31)c1ncncc12 [Compound 4ag, (S)-5-((2,3-dihydro-1H-inden-1-yl)amino)pyrimido[4,5-c]quinoline-8-carboxylic acid]	
150 (≈ 54.7 µg/mL)	240 to 243	370					O=C(O)c1ccc2c(c1)nc(NCc1cccc(Cl)c1)c1ncncc12 [Compound 4b, 5-((3-chlorobenzyl)amino)pyrimido[4,5-c]quinoline-8-carboxylic acid]	
160 (≈ 57.7 µg/mL)	246 to 247	280					COc1ccc(CNc2nc3cc(C(=O)O)ccc3c3cncnc23)cc1 [Compound 4f, 5-((4-methoxybenzyl)amino)pyrimido[4,5-c]quinoline-8-carboxylic acid]	
170 (≈ 58.5 µg/mL)	201 to 204	340					Cc1ccc(CNc2nc3cc(C(=O)O)ccc3c3cncnc23)cc1 [Compound 4h, 5-((4-methylbenzyl)amino)pyrimido[4,5-c]quinoline-8-carboxylic acid]	
150 (≈ 57.1 µg/mL)	250 to 255	470					O=C(O)c1ccc2c(c1)nc(NCc1ccc(C(F)F)cc1)c1ncncc12 [Compound 4i, 5-((4-(difluoromethyl)benzyl)amino)pyrimido[4,5-c]quinoline-8-carboxylic acid]	
5 (≈ 1.9 µg/mL)	250 to 253	500					O=C(O)c1ccc2c(c1)nc(NCc1ccc3ccccc3c1)c1ncncc12 [Compound 4m, 5-((naphthalen-2-ylmethyl)amino)pyrimido[4,5-c]quinoline-8-carboxylic acid]	
220 (≈ 67.8 µg/mL)	265 to 268	410			3		O=C(O)c1ccc2c(c1)nc(NCC1CCC1)c1ncncc12 [Compound 4r, 5-((cyclobutylmethyl)amino)pyrimido[4,5-c]quinoline-8-carboxylic acid]	
210 (≈ 67.7 µg/mL)	261 to 264	320			3		O=C(O)c1ccc2c(c1)nc(NCC1CCCC1)c1ncncc12 [Compound 4s, 5-((cyclopentylmethyl)amino)pyrimido[4,5-c]quinoline-8-carboxylic acid]	
